Measured values from US20260198495A1, “BINARY INSECTICIDE COMPOSITION AND USE THEREOF” (SHENYANG SINOCHEM AGROCHEMICALS R & D CO., LTD., priority 2022, published 2026).

Tests used:
Type in all cases: in vivo
Aphis craccivora nymphs = assay: Synergism screening (Bliss) of I-72 + pyrethroid insecticides, Example 38, Table 38; conditions: for mortality at 0.15 µg/mL / mortality at 2 µg/mL / mortality at 3 µg/mL / mortality at 0.3 µg/mL / mortality at 1 µg/mL: Aphis craccivora, in Vicia faba, 48 h; for mortality at 0.15 µg/mL: read-out: Measured mortality rate (%), single pesticide, concentration 0.15 mg/L, broad bean seedling spraying; for mortality at 2 µg/mL: read-out: Measured mortality rate (%), single pesticide, concentration 2 mg/L, broad bean seedling spraying; for mortality at 3 µg/mL: read-out: Measured mortality rate (%), single pesticide, concentration 3 mg/L, broad bean seedling spraying; for Measured mortality rate (%): single pesticide, broad bean seedling spraying, 48 hours; for mortality at 0.3 µg/mL: read-out: Measured mortality rate (%), single pesticide, concentration 0.3 mg/L, broad bean seedling spraying; for mortality at 1 µg/mL: read-out: Measured mortality rate (%), single pesticide, concentration 1 mg/L, broad bean seedling spraying
Procedure: Test target: Aphis craccivora nymphs, a sensitive strain reared indoors.
(§1) Preparation of the pesticide solution: according to different test requirements, the test samples were accurately weighed respectively with an electronic analytical balance. The technical pesticides were dissolved in acetone, and then diluted with 0.1% Tween 80 water into a series of pesticide solutions with a certain concentration gradient according to the experimental design dosage.
Experimental method: first, broad bean seedlings with uniform and consistent Aphis craccivora were selected, with about 30-40 insects on each seedling. Then, they were evenly sprayed with the pesticide solution in the order from low dosage to high dosage according to the experimental design, with 1.5 mL of the solution for each leaf and 3 replicates for each treatment. In addition, a blank control (CK) was set up.
(§2) The treated test materials were placed in an observation room, and the temperature, humidity and illumination of the observation room could be adjusted as needed. The number of dead and alive insects was investigated 48 hours later, and the corrected mortality rate was calculated using the Abbott's formula.
(§3) The synergism of the mixture was evaluated by adopting the Bliss method, as in Example 5.

[1] = system: 3rd-instar larvae of Yponomeuta evonymallus (Linnaeus); assay: Synergism screening (Bliss) of I-72 + pyrethroid insecticides, Example 37, Table 37; conditions: single pesticide, leaf dipping, 72 hours
Procedure: Test target: 3rd-instar larvae of Yponomeuta evonymallus (Linnaeus).
as §1
(§4) Experimental method: Firstly, Hylotelephium spectabile leaves were selected and dipped into the prepared pesticide solutions for 10 s in the order from low dosage to high dosage according to the experimental design. After natural air-drying in the shade, they were placed in a 9-cm-diameter Petri dish with filter paper, and uniform and healthy test insects were introduced, with 10 insects for each treatment and 3 replicates for each treatment. In addition, a blank control (CK) was set up.
as §2, with “72” for “48”
(§5) The synergism of the mixture was evaluated by the Bliss method. According to the concept of independent joint action he proposed, Bliss believes that the theoretical mortality rate P when insecticides are used in combination can be calculated by the following formula: […]
(§6) Pm is the measured mortality rate (%) of the target when the first active ingredient is at a concentration of m; and Pn is the measured mortality rate (%) of the target when the second active ingredient is used at a concentration of n.
(§7) If the actual mortality rate of the target after the two active ingredients are mixed at a certain concentration is greater than theoretical mortality rate P, it is determined that the two active ingredients have a synergistic effect when used in combination at the set concentration, and otherwise, they have an antagonistic effect.

[2] = system: 3rd-instar larvae of Ostrinia furnacalis Guenee; assay: Synergism screening (Bliss) of I-72 + ecdysteroid and juvenile hormone insecticides, Example 51, Table 51; conditions: Ostrinia furnacalis, 72 h, read-out: Measured mortality rate
Procedure: Test target: 3rd-instar larvae of Ostrinia furnacalis Guenee.
as §1
as §4, with “first, tender corn stems” for “Firstly, Hylotelephium spectabile leaves”, “in” for “into”, “solution” for “solutions”
as §2, with “72” for “48”
as §3

[3] = system: 2nd-instar larvae of Plutella xylostella; assay: Synergism screening (Bliss) of I-72 + insect attractants and insecticides, Example 49, Table 49; conditions: for Measured mortality rate: single pesticide, 72 hours
Procedure: (§8) Test target: 2nd-instar larvae of Plutella xylostella.
as §1
as §4, with “first, cabbage” for “Firstly, Hylotelephium spectabile”, “in” for “into”, “solution” for “solutions”, “CK” for “(CK)”
as §2, with “72” for “48”
as §3

[4] = system: 2nd-instar larvae of Plutella xylostella; assay: whole plant or invertebrate; conditions: for Measured mortality rate: single pesticide, 72 hours; for mortality at 0.025 µg/mL / mortality at 0.5 µg/mL / mortality at 10 µg/mL / mortality at 0.01 µg/mL / mortality at 25 µg/mL: Plutella xylostella, 72 h, read-out: Measured mortality rate
Procedure: as §8, §1
as §4, with “first, cabbage” for “Firstly, Hylotelephium spectabile”, “in” for “into”, “solution” for “solutions”
as §2, with “72” for “48”
as §5, §6, §7

[5] = Plutella xylostella, 72 h, read-out: Measured mortality rate

## Cc1c(COC(=O)[C@@H]2[C@H](/C=C(\Cl)C(F)(F)F)C2(C)C)cccc1-c1ccccc1 (racemic) [Bifenthrin]
Aphis craccivora nymphs
  mortality at 0.15 µg/mL: 10%
  mortality at 2 µg/mL: 49.1%
  mortality at 3 µg/mL: 62%

## CC1(C)[C@H](C(=O)O[C@H](C#N)c2cccc(Oc3ccccc3)c2)[C@@H]1/C=C(\Cl)C(F)(F)F (racemic) [Lambda-cyhalothrin]
[1]; concentration 0.25 mg/L
  Measured mortality rate (%): 16.1%
[1]; concentration 2 mg/L
  Measured mortality rate (%): 39.3%
[1]; concentration 5 mg/L
  Measured mortality rate (%): 53.3%

## COC(C)(C)CCC[C@H](C)C/C=C/C(C)=C/C(=O)OC(C)C (racemic) [Methoprene]
[2]
  mortality at 0.04 µg/mL: 10%
  mortality at 2 µg/mL: 17.9%
  mortality at 100 µg/mL: 25%

## CC1(C)C(C=C(Cl)Cl)C1C(=O)OC(C#N)c1cccc(Oc2ccccc2)c1 (stereo not drawn) [Alpha-cypermethrin]
[1]; concentration 0.5 mg/L
  Measured mortality rate (%): 9.1%
[1]; concentration 1 mg/L
  Measured mortality rate (%): 19.4%
[1]; concentration 5 mg/L
  Measured mortality rate (%): 43.8%

## CC1(C)C(C=C(Cl)Cl)C1C(=O)OC(C#N)c1ccc(F)c(Oc2ccccc2)c1 (stereo not drawn) [Beta-cyfluthrin]
[1]; concentration 0.5 mg/L
  Measured mortality rate (%): 12.9%
[1]; concentration 1 mg/L
  Measured mortality rate (%): 21.4%
[1]; concentration 5 mg/L
  Measured mortality rate (%): 51.6%

## CC1(C)[C@H](C=C(Cl)Cl)[C@H]1C(=O)O[C@@H](C#N)c1cccc(Oc2ccccc2)c1 [Beta-cypermethrin]
Aphis craccivora nymphs; concentration 0.3 mg/L
  Measured mortality rate (%): 16.1%
Aphis craccivora nymphs; concentration 1 mg/L
  Measured mortality rate (%): 49.7%

## CC12CCC(CC1=O)C2(C)C (stereo not shown) [Camphor]
[3]; [5]
  mortality at 0.002 µg/mL: 7.4%
  mortality at 0.1 µg/mL: 9.7%
  mortality at 5 µg/mL: 13.8%

## O=C(NC(=O)c1ccccc1Cl)Nc1ccc(Cl)cc1 [Chlorbenzuron]
[4]; 0.01 mg/L
  Measured mortality rate: 6.5%
[4]; 0.5 mg/L
  Measured mortality rate: 14.8%
[4]; 25 mg/L
  Measured mortality rate: 25.8%

## O=C(NC(=O)c1c(F)cccc1F)Nc1cc(Cl)c(Oc2ncc(C(F)(F)F)cc2Cl)c(Cl)c1 [Chlorfluazuron]
[4]
  mortality at 0.025 µg/mL: 3.4%
  mortality at 0.5 µg/mL: 10.3%
  mortality at 10 µg/mL: 24.1%

## CC1(C)C(C=C(Cl)Cl)C1C(=O)OC(C#N)c1ccc(F)c(Oc2ccccc2)c1 (stereo not shown) [Cyfluthrin]
[1]; concentration 0.5 mg/L
  Measured mortality rate (%): 10.0%
[1]; concentration 1 mg/L
  Measured mortality rate (%): 18.8%
[1]; concentration 5 mg/L
  Measured mortality rate (%): 48.4%

## CC1(C)C(C=C(Cl)Cl)C1C(=O)OC(C#N)c1cccc(Oc2ccccc2)c1 (stereo not shown) [Cypermethrin]
Aphis craccivora nymphs
  mortality at 0.15 µg/mL: 13.3%
  mortality at 2 µg/mL: 60.9%

## CC1(C)[C@H](C(=O)O[C@H](C#N)c2cccc(Oc3ccccc3)c2)[C@@H]1C=C(Br)Br [Deltamethrin]
Aphis craccivora nymphs
  mortality at 0.3 µg/mL: 17.3%
  mortality at 1 µg/mL: 28%
  mortality at 3 µg/mL: 61.4%

## CC(C)c1cc(Oc2ccccc2)cc(C(C)C)c1NC(=S)NC(C)(C)C [Diafenthiuron]
[4]
  mortality at 0.025 µg/mL: 6.3%
  mortality at 0.5 µg/mL: 13.3%
  mortality at 10 µg/mL: 21.4%

## O=C(NC(=O)c1c(F)cccc1F)Nc1ccc(Cl)cc1 [Diflubenzuron]
[4]
  mortality at 0.01 µg/mL: 11.1%
  mortality at 0.5 µg/mL: 12.9%
  mortality at 25 µg/mL: 31%

## CC(C)[C@H](C(=O)O[C@H](C#N)c1cccc(Oc2ccccc2)c1)c1ccc(Cl)cc1 [Esfenvalerate]
[1]; concentration 0.5 mg/L
  Measured mortality rate (%): 9.4%
[1]; concentration 1 mg/L
  Measured mortality rate (%): 13.8%
[1]; concentration 5 mg/L
  Measured mortality rate (%): 40.0%

## CCOc1ccc(C(C)(C)COCc2cccc(Oc3ccccc3)c2)cc1 [Etofenprox]
Aphis craccivora nymphs
  mortality at 0.15 µg/mL: 14%
  mortality at 2 µg/mL: 49.5%

## CC1(C)C(C(=O)OC(C#N)c2cccc(Oc3ccccc3)c2)C1(C)C (stereo not shown) [Fenpropathrin]
[1]; concentration 0.5 mg/L
  Measured mortality rate (%): 13.3%
[1]; concentration 1 mg/L
  Measured mortality rate (%): 22.6%
[1]; concentration 5 mg/L
  Measured mortality rate (%): 40.7%

## CC(C)C(C(=O)OC(C#N)c1cccc(Oc2ccccc2)c1)c1ccc(Cl)cc1 (stereo not shown) [Fenvalerate]
Aphis craccivora nymphs
  mortality at 0.3 µg/mL: 14.7%
  mortality at 1 µg/mL: 29%
  mortality at 3 µg/mL: 51.1%

## N#Cc1nn(-c2c(Cl)cc(C(F)(F)F)cc2Cl)c(N)c1[S+]([O-])C(F)(F)F (stereo not shown) [Fipronil]
[3]; [5]
  mortality at 0.01 µg/mL: 6.7%
  mortality at 0.1 µg/mL: 16.7%
  mortality at 1 µg/mL: 27.6%

## O=C(NC(=O)c1c(F)cccc1F)Nc1ccc(Oc2ccc(C(F)(F)F)cc2Cl)cc1F [Flufenoxuron]
[4]
  mortality at 0.01 µg/mL: 9.7%
  mortality at 0.5 µg/mL: 10.7%
  mortality at 25 µg/mL: 27.6%

## CON=CNC(=O)c1ccc(C2=NOC(c3cc(Cl)cc(Cl)c3)(C(F)(F)F)C2)cc1C (stereo not shown) [Fluxametamide]
[3]; 0.01 mg/L
  Measured mortality rate: 6.9%
[3]; 0.1 mg/L
  Measured mortality rate: 48.4%
[3]; 1 mg/L
  Measured mortality rate: 75.9%

## CC1(C)[C@H](C(=O)O[C@H](C#N)c2cccc(Oc3ccccc3)c2)[C@@H]1/C=C(\Cl)C(F)(F)F [Gamma-cyhalothrin]
[1]; concentration 0.1 mg/L
  Measured mortality rate (%): 6.9%
[1]; concentration 5 mg/L
  Measured mortality rate (%): 48.3%

## O=C(NC(=O)c1c(F)cccc1F)Nc1cc(Cl)c(OC(F)(F)C(F)F)c(Cl)c1 [Hexaflumuron]
[4]
  mortality at 0.025 µg/mL: 6.7%
  mortality at 0.5 µg/mL: 13.8%
  mortality at 10 µg/mL: 22.6%

## CCN1OCC(NC(=O)c2ccc(C3=NOC(c4cc(Cl)c(F)c(Cl)c4)(C(F)(F)F)C3)cc2C)C1=O (stereo not shown) [Isocycloseram]
[3]; 0.01 mg/L
  Measured mortality rate: 17.9%
[3]; 0.1 mg/L
  Measured mortality rate: 71.9%
[3]; 1 mg/L
  Measured mortality rate: 80.0%

## O=C(NC(=O)c1c(F)cccc1F)Nc1cc(Cl)c(OC(F)(F)C(F)C(F)(F)F)cc1Cl (stereo not shown) [Lufenuron]
[4]
  mortality at 0.025 µg/mL: 7.4%
  mortality at 0.5 µg/mL: 12.5%
  mortality at 10 µg/mL: 20.7%

## CCCCCCCC/C=C\CCCCCCCCCCCCC [Muscalure]
[3]; 0.002 mg/L
  Measured mortality rate: 3.1%
[3]; 0.1 mg/L
  Measured mortality rate: 10.0%
[3]; 5 mg/L
  Measured mortality rate: 20.7%

## CC1(C)C(C=C(Cl)Cl)C1C(=O)OCc1cccc(Oc2ccccc2)c1 (stereo not shown) [Permethrin]
Aphis craccivora nymphs
  mortality at 0.3 µg/mL: 12%
  mortality at 1 µg/mL: 25.3%
  mortality at 3 µg/mL: 64.8%

## FC(F)(F)c1ccc(OCCCOc2c(Cl)cc(OCC=C(Cl)Cl)cc2Cl)nc1 [Pyridalyl]
[3]; [5]
  mortality at 0.005 µg/mL: 8%
  mortality at 0.1 µg/mL: 12.9%
  mortality at 2 µg/mL: 24.1%

## CC1(C)[C@H](C=C(Cl)Cl)[C@H]1C(=O)O[C@H](C#N)c1cccc(Oc2ccccc2)c1 [Theta-cypermethrin]
[1]; concentration 0.5 mg/L
  Measured mortality rate (%): 10.3%
[1]; concentration 1 mg/L
  Measured mortality rate (%): 16.7%
[1]; concentration 5 mg/L
  Measured mortality rate (%): 46.4%

## O=C(NC(=O)c1ccccc1Cl)Nc1ccc(OC(F)(F)F)cc1 [Triflumuron]
[4]
  mortality at 0.025 µg/mL: 6.9%
  mortality at 0.5 µg/mL: 13.8%
  mortality at 10 µg/mL: 17.2%

## CC1(C)C(C=C(Cl)Cl)C1C(=O)OC(C#N)c1cccc(Oc2ccccc2)c1 (stereo not shown) [Zeta-cypermethrin]
Aphis craccivora nymphs; concentration 0.15 mg/L
  Measured mortality rate (%): 17.1%
Aphis craccivora nymphs; concentration 2 mg/L
  Measured mortality rate (%): 64.5%

## Pyrethrin
Aphis craccivora nymphs; concentration 0.3 mg/L
  Measured mortality rate (%): 15.6%
Aphis craccivora nymphs; concentration 1 mg/L
  Measured mortality rate (%): 25.6%
Aphis craccivora nymphs; concentration 3 mg/L
  Measured mortality rate (%): 63.0%
